Literature values in patent US6504031B1, “Naphthamidine urokinase inhibitors” (priority 1998, dated 2003).

Tests used:
[1] = system: angiogenesis; conditions: J. Cell Biol. 1991, 115[3 Pt 2], 402a
[2] = system: tumor metastasis; conditions: Anticancer Res. 1988, 8, 1373-1376

N=C(N)NC(=O)c1nc(Cl)c(N)nc1N [Amiloride]
inhibition of angiogenesis in vitro [1]: inhibit | inhibition of tumor metastasis in vivo [2]: inhibit tumor metastasis
